Structures are written as SMILES. pIC50: −log10 of the molar value.

In this test the target is T1, C-X-C chemokine receptor type 3 (Homo sapiens, UniProt P49682).
T1 sequence (P49682 whole entry): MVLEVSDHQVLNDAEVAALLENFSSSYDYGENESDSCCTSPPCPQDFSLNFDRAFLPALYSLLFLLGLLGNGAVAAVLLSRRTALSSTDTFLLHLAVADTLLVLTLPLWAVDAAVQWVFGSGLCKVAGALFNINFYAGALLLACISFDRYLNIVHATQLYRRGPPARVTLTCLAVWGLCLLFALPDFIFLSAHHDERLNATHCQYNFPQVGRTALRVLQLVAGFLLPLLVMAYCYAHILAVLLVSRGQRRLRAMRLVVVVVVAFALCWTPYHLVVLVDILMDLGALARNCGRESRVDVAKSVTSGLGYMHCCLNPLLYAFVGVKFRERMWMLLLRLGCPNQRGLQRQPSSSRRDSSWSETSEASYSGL
Nature of the test: Receptor Internalization Assay (RIA): Stock solutions of test compounds are made up at a concentration of 10 mM in DMSO, and serially diluted in PBS containing 0.5% BSA to concentrations required for inhibition dose response curves. Diluted compounds are then mixed with an equal volume of CXCL10 (Peprotech) diluted in PBS. Anticoagulated venous human whole blood is added to the mixture, which is then incubated in a CO2 incubator at 37° C. to allow for ligand mediated receptor internalization (final CXCL10 concentration is 9 nM). After 30 min, the blood is mixed with fluorescently labeled CXCR3 and CD4 specific antibodies (Becton Dickinson) and incubated on ice for 10 minutes. Samples are then mixed with BD FACS Lysing Solution (Becton Dickinson) in order to eliminate red blood cells. After washing the cells with PBS containing 0.5% BSA, the samples are then analyzed in a flow cytometer (FACS Canto II, Becton Dickinson). For data analysis using FACSDiva software (Becton Dickinson), the mean fluorescence corresponding to CXCR3 cell surface expression was determined on CD4 positive cells. The calculated IC50 values may fluctuate depending on the daily assay performance. Fluctuations of this kind are known to those skilled in the art. In the case where IC50 values have been determined several times for the same compound, mean values are given.
For `CC(C)c1ncn(CC(=O)N2C(C)CNCC2c2sc(C(F)(F)F)cc2-c2cnc(C3CC3)nc2)n1` (centres undefined), the pIC50 is 6.28.
For `COCc1ncn(CC(=O)N2C(C)CNCC2c2sc(C(F)(F)F)cc2-c2cnc(C3CC3)nc2)n1` (centres undefined), the pIC50 is 5.86.
The value for `CCc1ncn(CC(=O)N2C(C)CNCC2c2sc(C(F)(F)F)cc2-c2cnc(C(F)(F)F)nc2)n1` (centres undefined) was 6.83; that for `CC1CNCC(c2sc(C(F)(F)F)cc2-c2cnc(C(F)(F)F)nc2)N1C(=O)Cn1cnc(C(N)=O)n1` (centres undefined) was 5.77; that for `CC1CNCC(c2sc(C(F)(F)F)cc2-c2cnc(C(F)(F)F)nc2)N1C(=O)Cn1cnc(C(C)(C)C)n1` (centres undefined) was 6.46.
As for `CC1CNCC(c2sc(C(F)(F)F)cc2-c2cnc(C(F)(F)F)nc2)N1C(=O)Cn1cnc(CO)n1` (centres undefined), the figure is 6.09; as for `CC1CNCC(c2sc(C(F)(F)F)cc2-c2cnc(C3CC3)nc2)N1C(=O)Cn1cnc(C(C)(C)C)n1` (centres undefined), 6.17; as for `CCCc1ncn(CC(=O)N2C(C)CNCC2c2sc(C(F)(F)F)cc2-c2cnc(C(F)(F)F)nc2)n1` (centres undefined), 6.66.
The value for `CCc1ncn(CC(=O)N2C(C)CNCC2c2sc(C(F)(F)F)cc2-c2cnc(C3CC3)nc2)n1` (centres undefined) was 6.72.
In the case of `Cc1ncn(CC(=O)N2C(C)CNCC2c2sc(C(F)(F)F)cc2-c2cnc(C3CC3)nc2)n1` (centres undefined), the pIC50 is 6.34.
As for `COCc1ncn(CC(=O)N2C(C)CNCC2c2sc(C(F)(F)F)cc2-c2cnc(C(F)(F)F)nc2)n1` (centres undefined), the figure is 6.22.
Consider `CC1CNCC(c2sc(C(F)(F)F)cc2-c2cnc(C(F)(F)F)nc2)N1C(=O)Cn1cnc(C(C)(C)O)n1` (centres undefined), for which the pIC50 was 6.08.
As for `Cc1ncn(CC(=O)N2C(C)CNCC2c2sc(C(F)(F)F)cc2-c2cnc(C(F)(F)F)nc2)n1` (centres undefined), the figure is 6.72; as for `CCOc1ncc(-c2cc(C(F)(F)F)sc2C2CNCC(C)N2C(=O)Cn2cnc(CC)n2)cn1` (centres undefined), 6.63.
As for `CCOc1ncc(-c2cc(C(F)(F)F)sc2C2CNCC(C)N2C(=O)Cn2cnc(C(C)(C)C)n2)cn1` (centres undefined), the figure is 6.26; as for `CCOc1ncc(-c2cc(C(F)(F)F)sc2C2CNCC(C)N2C(=O)Cn2cnc(C)n2)cn1` (centres undefined), 6.68.
As for `CCOc1ncc(-c2cc(C(F)(F)F)sc2C2CNCC(C)N2C(=O)Cn2cnc(COC)n2)cn1` (centres undefined), the figure is 6.02; as for `CC(C)c1ncn(CC(=O)N2C(C)CNCC2c2sc(C(F)(F)F)cc2-c2cnc(C(F)(F)F)nc2)n1` (centres undefined), 6.76.
As to `CCOc1ncc(-c2cc(C(F)(F)F)sc2C2CNCC(C)N2C(=O)Cn2cnc(C(C)C)n2)cn1` (centres undefined), the pIC50 was 6.52.

The values are drawn from ChEMBL document CHEMBL5725459, “(R)-2-methyl-piperazine derivatives as CXCR3 receptor modulators” (2018).
